No end group written: not given here.
Key:
human IgG Fc fragment [1] = assay: competitive phage FLISA with Staphylococcal protein A; assay type: binding
Procedure: SpA is known to interact specifically with the region at the CH2-CH3 interface of immunoglobulins. Wells of the black Nunc MaxiSorp microtiter plate were either coated with human IgG Fc fragment or left uncoated (controls). Wells were blocked with BSA and contacted with purified fluorescein-labelled phage clone (the labelling procedure was adapted from the instructions of FITC manufacturer, Sigma-Aldrich). Phage was allowed to compete for the Fc binding with SpA in concentrations 1 μM, 100 nM or 10 nM. After 1 h-incubation at room temperature, the content was discarded and wells were washed with 0.1% PBST and finally filled with PBS. Fluorescence intensities in individual wells were measured at 510 nm upon excitation at 485 nm. The experiment was performed in triplicate.

[2] = tested on: IgGs of different species (mouse, donkey, rabbit and sheep); assay: assay akin to ELISA with peptide SA-HRP complexes on IgGs of animal species; assay type: binding; settings: biotinylated synthetic peptide complexed to SA-HRP, sheep IgG
Procedure: (§1) The binding activity of the described biotinylated synthetic peptides to different immunoglobulins was evaluated using an assay akin to ELISA. Wells were coated with the different subclasses of human IgGs or human intravenous immunoglobulins. All the wells were blocked with BSA. A biotinylated synthetic peptide and horseradish peroxidase (HRP)-conjugated streptavidin (SA-HRP) were mixed in advance at molar ratio of 4:1 to formulate tetrameric (peptide)4 SA-HRP complexes and then the mixtures were added to individual wells. After washing, the (peptide)4 SA-HRP complexes were detected with TMB solution.
Additionally, the binding activity of the synthetic peptide SEQ ID NO: 2 to immunoglobulins of different animal species (mouse, rabbit, donkey, and sheep) was evaluated by an assay akin to ELISA essentially as described above. Peptides SEQ ID NO: 184 and SEQ ID NO: 185 represent two control biotin-labelled synthetic peptides with unrelated amino acids sequences.

[3] = tested on: therapeutic monoclonal antibodies; assay: phage ELISA on therapeutic monoclonal antibodies; assay type: binding; settings: peptide displayed on phage as P3 fusion
Procedure: (§2) Wells of a 96-well microplate (Nunc, Maxisorp) were either coated with human Fc fragment solution or streptavidin as negative control. The wells were blocked with BSA and contacted with amplified population of each individual clone. Bound phages were detected by the addition of horseradish peroxidase (HRP)-conjugated anti-M13 monoclonal antibodies using the chromogenic substrate (3,3′,5,5′-tetramethylbenzidine (TMB)) solution, and absorbance at 450 nm was measured.
(§3) The binding activity of phage clone displaying the minimized peptide SEQ ID NO: 2, was further evaluated by phage ELISA (as described above) using different subclasses of native human IgGs and different therapeutic monoclonal antibodies. BSA, avidin and SA were used as targets in negative control wells.

human Fc fragment = assay: surface plasmon resonance (BIAcore X100), peptide immobilized via streptavidin; assay type: binding; settings: 25° C; Fc 10-160 nM, single cycle
Procedure: Interaction between the synthetic biotinylated peptide ligand with amino acid sequence identical to SEQ ID NO: 2 and human Fc fragment was analyzed by surface plasmon resonance (SPR) using BIAcoreX100 (BIAcore) at 25° C. Biotinylated synthetic peptide of the present invention was immobilized to the matrix indirectly through streptavidin. Streptavidin (SA) was immobilized to the surface of CM-5 chip through random amine coupling according to the manufacturer's recommendations to achieve a stable response corresponding to approximately 4000 resonance units. The first cell surface was prior activated and deactivated and used as a reference cell during injections. After successful covalent immobilization of SA to dextran matrix via amino groups, a 120 nM solution (pH 5) of biotinylated synthetic peptide SEQ ID NO: 2 was injected over a sensor chip SA to immobilize the peptide onto the chip. The amount of immobilized peptide was adjusted to the stable response corresponding to approximately 200 RU. Subsequently, solutions of human Fc fragment (the analyte) of various concentrations (10 nM, 20 nM, 40 nM, 80 nM, and 160 nM) in running buffer (0.005% P20 in PBS) were injected at a flow rate of 10 μL/min at through flow cells in a manner known as single cycle. Binding reaction between human Fc fragment and the peptide was recorded. […]

[4] = tested on: human IgGs of different subclasses (IgG1, IgG2, IgG3 and IgG4); assay: phage ELISA on subclasses of native human IgGs; assay type: binding; settings: peptide displayed on phage as P3 fusion
Procedure: as §2, §3

BSA, avidin and SA = assay: phage ELISA on negative control targets; assay type: binding; settings: peptide displayed on phage
Procedure: as §2, §3

[5] = tested on: human IgG subclasses (IgG1, IgG2, IgG3 and IgG4) and human intravenous immunoglobulins; assay: assay akin to ELISA with (peptide)4 SA-HRP complexes on human IgGs; assay type: binding; settings: for binding of biotinylated synthetic peptides to human IgGs: C-terminal linker SEQ ID NO: 181 biotinylated, tetrameric (peptide)4 SA-HRP complexes; for binding compared with the parental peptide SEQ ID NO: 2: biotinylated synthetic peptides, (peptide)4 SA-HRP complexes, human IgGs
Procedure: as §1

[6] = tested on: human IgG Fc fragment and native human IgGs; assay: pull-down assay with peptide-coated streptavidin paramagnetic beads; settings: versus parent peptide SEQ ID NO: 2
Procedure: Selected peptides (SEQ ID NO: 2, SEQ ID NO: 30, and SEQ ID NO: 26) with biotin attached via epsilon-amino group of C-terminal amidated lysine in added linker SEQ ID NO: 181 were synthesized and coupled to streptavidin-coated paramagnetic beads. The same paramagnetic beads without addition of peptide and the same paramagnetic beads coupled with unrelated biotinylated peptide SEQ. ID 185 were used as negative controls. First, the Fc fragment of human antibodies (2 μg) was spiked into PBS and incubated with peptide-coated paramagnetic beads. The beads were then pelleted, washed with 0.1% PBST, and the bound material was eluted with acidic buffer (0.2 M glycine/HCl, pH 2.2). The low pH eluate was immediately neutralized with 1M Tris/HCl, pH 9.1. The eluates obtained from pull-down assay were analyzed by DotBlot assay and Western blotting using polyclonal goat anti-human IgG (H+L) HRP conjugate for detection (results not shown). Equivalent pull-down assay was carried out also from serum free DMEM growth medium spiked with human Fc fragment (2 μg) with peptide SEQ ID NO: 2 (FIG. 11). Additionally, the pull-down assay was also made from intact human sera. The presence of human IgGs in the eluate was confirmed by Coomassie blue staining (FIG. 13) and Western blot analysis (FIG. 12) using HRP-conjugated goat anti-human (H+L) antibodies (BioRad).

human IgG Fc fragment [7] = assay: phage ELISA of phage-displayed peptides on human Fc fragment; assay type: binding; settings: peptide displayed on phage; absorbance at 450 nm
From the text: Three different phage display libraries were subjected to separate panning processes according to the protocol known to one skilled in the art. Various Fc-binding peptides were selected by targeting biotin-conjugated human Fc fragment prepared by random biotinylation of amine residues using EZ-Link™ Sulfo-NHS-SS-Biotin (Thermo Fisher Scientific, Rockford, IL, USA). After three rounds of affinity selection, individual clones were picked for phage Enzyme Linked Immuno-Sorbent Assay (ELISA) in order to evaluate their Fc fragment binding ability.
as §2
The experiment was performed in triplicate.
In order to investigate the contribution of individual amino acid residues of the truncated peptide SEQ ID NO: 2 to the Fc binding, alanine scanning strategy was carried out. […] However, we determined specific positions where alanine substitutions were well tolerated in terms of preserving binding activity. […]

SpA: Staphylococcal protein A; cell wall constituent protein derived from Staphylococcal aureus [reference compound]
inhibition of binding of FITC-labelled phage clone SEQ ID NO: 1 to immobilized human IgG Fc (human IgG Fc fragment [1]; SpA 1 μM, 100 nM or 10 nM, 1 h room temperature): the higher the concentration of SpA added, the more effectively is binding of the phage clone to human IgG Fc fragment inhibited

GSYWYQVWF (H-GSYWYQVWF; not fully specified (C-terminus)) [SEQ ID NO: 2]
binding to IgGs of different animal species [2]: specifically bound | binding to tested therapeutic monoclonal antibodies (phage ELISA) [3]: strongly bound | binding of human Fc to immobilized peptide (SPR) (human Fc fragment): exhibited binding to human Fc | dissociation rate (SPR) (human Fc fragment): slow | binding to human IgG subclasses (phage ELISA) [4]: strongly bound | binding to negative controls (phage ELISA) (BSA, avidin and SA): no significant binding | binding of biotinylated synthetic peptides to human IgGs [5]: specifically bound to human IgGs

GSYWYDVWF (not fully specified (C-terminus)) [SEQ ID NO: 26]
binding of biotinylated synthetic peptides to human IgGs [5]: specifically bound to human IgGs | binding compared with the parental peptide SEQ ID NO: 2 [5]: significantly increased binding | trapping efficiency in pull-down assay [6]: significantly higher than the parent peptide SEQ ID NO: 2

AGNGSYWYQVWF [SEQ ID NO: 1]
binding site on Fc fragment relative to SpA (human IgG Fc fragment [1]; inferred from competition with SpA): at least partially overlap | relative binding of phage clones to human IgG Fc (phage ELISA) (human IgG Fc fragment [7]): strongest binding phage clone

GSYWYEVWF (not fully specified (C-terminus)) [SEQ ID NO: 30]
binding of biotinylated synthetic peptides to human IgGs [5]: specifically bound to human IgGs | binding compared with the parental peptide SEQ ID NO: 2 [5]: significantly increased binding

Source: US12195512B2, “Affinity ligands for antibody Fc region” (Univerza v Ljubljani, priority 2018, dated 2025)
